The source made the active and inactive calls.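 Rule for the calls: active = maximal inhibition of the USP30 enzyme reaching 30% or more across the dose series; inactive = the rest.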
Biological target: Ubiquitin carboxyl-terminal hydrolase 30 (Homo sapiens) (UniProt Q70CQ3)
Assay: inhibitors of ubiquitin-specific protease 30 deubiquitylating enzyme, concentration dependence, in vitro biochemical, validation of primary hits (AID 1645865)
Settings: purified USP30, Ub-rhodamine cleavage, fluorescence, 2 h

Sequence of Ubiquitin carboxyl-terminal hydrolase 30 (Homo sapiens) (Q70CQ3 whole entry, looked up): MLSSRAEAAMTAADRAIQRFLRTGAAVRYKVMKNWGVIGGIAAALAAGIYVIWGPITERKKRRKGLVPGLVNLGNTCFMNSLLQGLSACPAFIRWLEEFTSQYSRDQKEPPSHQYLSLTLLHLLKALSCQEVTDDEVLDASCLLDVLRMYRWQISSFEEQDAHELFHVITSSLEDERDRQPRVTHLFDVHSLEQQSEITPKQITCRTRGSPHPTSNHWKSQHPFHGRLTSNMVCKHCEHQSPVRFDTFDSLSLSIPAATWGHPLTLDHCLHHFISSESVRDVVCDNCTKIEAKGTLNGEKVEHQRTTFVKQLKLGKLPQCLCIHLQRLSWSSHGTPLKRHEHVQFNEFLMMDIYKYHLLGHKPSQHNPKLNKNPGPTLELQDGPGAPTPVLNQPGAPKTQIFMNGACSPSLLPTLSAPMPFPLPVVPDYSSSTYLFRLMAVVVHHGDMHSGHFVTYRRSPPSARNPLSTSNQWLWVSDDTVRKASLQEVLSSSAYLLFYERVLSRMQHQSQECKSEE

| Compound | IC50 |
| --- | --- |
| O=C1C/C(=C\c2cccc(Cl)c2)Cc2ccccc21 | > 50 µM (inactive) |
| COc1ccc(OC)c(-c2c(C#N)c(C)nc3c2N2CCC3CC2)c1 | 24.1 µM |
| COc1ccc(Cl)cc1N1C(=O)[C@H]2[C@@H](C1=O)[C@]1(C(=O)Nc3c(C)cc(C)cc31)N1CCC[C@@H]21 | > 50 µM (inactive) |
| COc1cc(-c2nc(C(N)=O)c3[nH]c(=O)n(-c4ccc(C)cc4)c3n2)cc(OC)c1OC | 2.13 µM |
| CS(=O)(=O)N1CCCc2cc(C(=O)Nc3ccc4c(c3)OCO4)ccc21 | > 50 µM (inactive) |
| CC1=CN2C(=N)/C(=C/c3cn(Cc4ccc(Cl)cc4)c4ccccc34)C(=O)N=C2S1 | > 50 µM (inactive) |
| Cc1cc(N2CCN(c3ncccn3)CC2)nc2ccc(NC(=O)/C=C/c3ccccc3Cl)cc12 | 4.88 µM |
| Cc1cccc(C(=O)N2CCN3Cc4ccccc4N(C)CC3C2)c1 (stereo not given) | > 50 µM (inactive) |
| CCc1c(C)c(C#N)c2nc3ccccc3n2c1N1CCN(C2CCCC2)CC1 | 1.7 µM |
| CSc1nc(SCC(N)=O)c2c3c(sc2n1)COC(C)(C)C3 | 30.6 µM |
| O=C(CC1Oc2ccccc2NC1=O)Nc1ccccc1Br (stereo not given) | 44.3 µM |
| O=C(Cn1c(=O)n(CCCC(=O)N2CC=C(c3ccccc3)CC2)c(=O)c2ccccc21)NCCC1=CCCCC1 | > 50 µM (inactive) |
| O=C(CSc1ccc2nnc(-c3ccccc3)n2n1)N1CCCc2ccccc21 | 10.7 µM |
| Cc1cc(NCC2CC2)n2nc(Nc3cc(Cl)ccc3C)nc2n1 | 23.6 µM |
| O=C(NC1CCCC1)C1CC(=O)N(c2cccc(-c3noc(-c4cccs4)n3)c2)C1 (stereo not given) | > 50 µM (inactive) |
| c1coc(CNc2nc3ccccc3n3nnnc23)c1 | > 50 µM (inactive) |
| COc1cc(OC)c2c(c1)C(=O)C1=C(COC(C)(O)C1)C2=O (stereo not given) | > 50 µM (inactive) |

Other lines, results leading:

| IC50 | Compound |
| --- | --- |
| > 50 µM (inactive) | CC1Oc2ccccc2C(=O)N(Cc2ccc([N+](=O)[O-])cc2)C1=O (stereo not given) |
| 19.7 µM | COc1ccc(CNC(=O)CSc2nc3nc(C)ccc3o2)cc1 |
| > 50 µM (inactive) | O=C(NC1CCN(Cc2ccccc2)CC1)c1[nH]nc2c1COc1ccccc1-2 |
| > 50 µM (inactive) | COc1cccc2c1OCC(C(=O)NCc1ccc(F)cc1)=C2 |
| > 50 µM (inactive) | COc1ccc(CCn2cnc3c4ccccc4n(C)c3c2=O)cc1OC |
| > 50 µM (inactive) | COc1cccc(NC(=O)C2CCN(C(=O)c3cc(-c4cccnc4)n[nH]3)CC2)c1 |
| 7.12 µM | COc1ccc(NC(=O)Cn2c(CS(=O)(=O)c3ccc(C)cc3)nc3ccccc32)cc1 |
| 3.28 µM | CC1CCc2sc(NC(=O)c3ccccc3Oc3ccccc3)c(C(N)=O)c2C1 (stereo not given) |
| 33.1 µM | O=C(Cn1c(NCc2ccccc2)nc2ccccc21)NCC(F)(F)F |
| > 50 µM (inactive) | COc1ccc(CC(=O)Nc2nc(-c3ccco3)c(-c3ccco3)s2)cc1 |
| 11 µM | CC(=O)c1sc(NC(=O)c2ccccc2-c2ccc(C(F)(F)F)cc2)nc1C |
| 22.1 µM | Cc1cccc(NC(=O)CN2C(=O)CC(c3ccccc3)S(=O)(=O)c3ccccc32)c1C (stereo not given) |
| > 50 µM (inactive) | O=C(CNS(=O)(=O)c1ccc(F)cc1)N1CCCC(c2nnc3ccccn23)C1 (stereo not given) |
| > 50 µM (inactive) | Cc1ccc(Cn2nnc(-c3ccccc3Cl)n2)cc1 |
| 25.6 µM | COc1ccc(OC)c(C2CC(=O)Nc3n[nH]c(-c4ccccc4)c32)c1 (stereo not given) |
| > 50 µM (inactive) | CC1(C(=O)NC2CCCC2)Cn2c(cc3ccccc32)C(=O)N1c1ccc(F)cc1 (stereo not given) |
| > 50 µM (inactive) | O=C(CCc1ccc(S(=O)(=O)N2CCOCC2)cc1)Nc1ccc2c(c1)OCCO2 |
| 2.37 µM | CCc1ccc(NC(=O)Cc2nnc3cc(-c4nc(C)no4)ccn23)cc1 |
| 3.15 µM | Cc1ccc(NC(=O)Cc2nnc3c(-c4nc(C5CC5)no4)cccn23)cc1 |
| 1.55 µM | O=C(Nc1cccc(Br)c1)c1cc(-c2cccnc2)n[nH]1 |
| 29.5 µM | Cc1cnnn1-c1ccc(C(=O)Nc2ccc(Cl)cc2)cc1 |
| > 50 µM (inactive) | COc1cc(OC)cc(C(=O)Nc2cnc(-c3ccccc3)nc2)c1 |
| 14.6 µM | COc1ccc(CNC(=O)CN2C(=O)CC(c3ccccc3)=Nc3ccccc32)cc1 |
